Experiments:
[1] = tested on: maximal (tonic hindlimb extension) electroshock seizures in male rats; assay: Maximal electroshock seizure (MEST) threshold test, rat model; type: in vivo; details: 2 mg/kg p.o. at 2 h, suspended in 1% methyl cellulose, statistically significant
Procedure: The maximal electroshock seizure (MEST) threshold test in rodents is particularly sensitive for detecting potential anticonvulsant properties^1. In this model, anticonvulsant agents elevate the threshold to electrically-induced seizures whilst proconvulsants lower the seizure threshold.
The threshold for maximal (tonic hindlimb extension) electroshock seizures in male rats (Sprague Dawley, 80-150 g, 6 weeks old) was determined by a Hugo Sachs Electronik stimulator which delivered a constant current (0.3 sec duration; from 1-300 mA in steps of 5-20 mA). The procedure is similar to that outlined above for mouse and full details are as published by Upton et al,.^4
The percentage increase or decrease in CC50 for each group compared to the control is calculated.
Drugs are suspended in 1% methyl cellulose.

[2] = biological target: novel receptor obtainable from rat forebrain tissue; assay: Radioligand binding assay, displacement of [3H]-Compound A; details: competition with 20 nM [3H]-Compound A, room temperature 1 hour
Procedure: The affinity of test compounds to the novel receptor site is assessed as follows. Whole forebrain tissue is obtained from rats. The tissue is first homogenised in buffer (usually 50 mM Tris/HCl, pH 7.4). The homogenised tissue is washed by centrifugation and resuspension in the same buffer, then stored at -70° C. until used. To carry out the radioligand binding assay, aliquots of tissue prepared as above (usually at a concentration of 1-2 mg protein/ml) are mixed with aliquots of [3H]-Compound A dissolved in buffer. The final concentration of [3H]-Compound A in the mixture is usually 20 nM. The mixture is incubated at room temperature for 1 hour. [3H]-Compound A bound to the tissue is then separated from unbound [3H]-Compound A by filtration through Whatman GF/B glass fibre filters. The filters are then washed rapidly with ice-cold buffer. The amount of radioactivity bound to the tissue trapped on the filters is measured by addition of liquid scintillation cocktail to the filters followed by counting in a liquid scintillation counter. In order to determine the amount of "specific" binding of [3H]-Compound A, parallel assays are carried out as above in which [3H]-Compound A and tissue are incubated together in the presence of unlabelled Compound A (usually 3 μM). The amount of binding of [3H]-Compound A remaining in the presence of this unlabelled compound is defined as "non-specific" binding. This amount is subtracted from the total amount of [3H]-Compound A binding (i.e. that present in the absence of unlabelled compound) to obtain the amount of "specific" binding of [3H]-Compound A to the novel site. The affinity of the binding of test compounds to the novel site can be estimated by incubating together [3H]-Compound A and tissue in the presence of a range of concentrations of the compound to be tested. The decrease in the level of specific [3H]-Compound A binding as a result of competition by increasing concentrations of the compound under test is plotted graphically, and non-linear regression analysis of the resultant curve is used to provide an estimate of compound affinity in terms of pKi value.

Row | pKi [2] | Compound | increase in CC50 compared to control [1] [%]
1 | greater than 7 | COc1ccc(C(=O)Nc2ccc3c(c2Cl)CNCC3)cc1C(F)(F)F [Example 5] | 320
2 | greater than 7 | CCc1c(NC(=O)c2ccc(OC)c(C(F)(F)F)c2)ccc2c1CNCC2 [Example 14, N-(8-Ethyl-1,2,3,4-tetrahydroisoquinolin-7-yl)-4-methoxy-3-trifluoromethylbenzamide] | 
3 | greater than 7 | CCc1c(NC(=O)c2ccc(OC)c(C(F)(F)F)c2)ccc2c1CN(C)CC2 [Example 15, N-(8-Ethyl-2-methyl-1,2,3,4-tetrahydroisoquinolin-7-yl)-4-methoxy-3-trifluoromethylbenzamide] | 
4 | greater than 7 | COc1ccc(C(=O)Nc2ccc3c(c2C=Cc2ccccc2)CN(C)CC3)cc1C(F)(F)F.Cl [Example 19, N-(8-Styryl-2-methyl-1,2,3,4-tetrahydroisoquinolin-7-yl)-4-methoxy-3-trifluoromethylbenzamide hydrochloride] | 

Second part, the compound before the results:

Row | Compound | pKi [2] | increase in CC50 compared to control [1] [%]
5 | CCOc1ccc(C(=O)Nc2ccc3c(c2Cl)CNCC3)cc1Br [Example 2, N-(8-Chloro-1,2,3,4-tetrahydroisoquinolin-7-yl)-3-bromo-4-ethoxybenzamide] | greater than 7 | 120
6 | CCOc1ccc(C(=O)Nc2ccc3c(c2Cl)CN(C)CC3)cc1Br [Example 3, N-(8-chloro-2-methyl-1,2,3,4-tetrahydroisoquinolin-7-yl)-3-bromo-4-ethoxybenzamide] | greater than 7 | 160
7 | COc1ccc(C(=O)Nc2ccc3c(c2Cl)CN(C)CC3)cc1C(F)(F)F [Example 6, N-(8-Chloro-2-methyl-1,2,3,4-tetrahydroisoquinolin-7-yl)-4-methoxy-3-trifluoromethylbenzamide] |  | 260
8 | COc1ccc(C(=O)Nc2ccc3c(c2Br)CNCC3)cc1C(F)(F)F [Example 8, N-(8-Bromo-1,2,3,4-tetrahydroisoquinolin-7-yl)-4-methoxy-3-trifluoromethylbenzamide] |  | 400
9 | COc1ccc(C(=O)Nc2ccc3c(c2Br)CN(C)CC3)cc1C(F)(F)F [Example 9, N-(8-Bromo-2-methyl-1,2,3,4-tetrahydroisoquinolin-7-yl)-4-methoxy-3-trifluoromethylbenzamide] |  | 340
10 | COc1ccc(C(=O)Nc2ccc3c(c2C=Cc2ccccc2)CNCC3)cc1C(F)(F)F [Example 18, N-(8-Styryl-1,2,3,4-tetrahydroisoquinolin-7-yl)-4-methoxy-3-trifluoromethylbenzamide] | greater than 7 | 

Source: US6248754A, “Substituted isoquinoline derivatives and their use as anticonvulsants” (SmithKline Beecham, p.l.c., priority 1997, dated 2001)
